Reference: patent publication US5132320A, “Squalene synthetase inhibitors” (Merck & Co., Inc., priority 1990, dated 1992)

Key:
Squalene Synthetase = target: T1, Squalene Synthetase (Rattus norvegicus, UniProt Q02769); test: squalene synthetase assay (rat liver microsomes, [4-14C]farnesyl-pyrophosphate); assay type: biochemical; settings: 30° C., 20 minutes, pH 7.5
T1 construct: from tissue; host or cells: liver microsomes of male Charles River CD rats fed 0.1% lovastatin for 4 days
T1 sequence (Q02769 1-416): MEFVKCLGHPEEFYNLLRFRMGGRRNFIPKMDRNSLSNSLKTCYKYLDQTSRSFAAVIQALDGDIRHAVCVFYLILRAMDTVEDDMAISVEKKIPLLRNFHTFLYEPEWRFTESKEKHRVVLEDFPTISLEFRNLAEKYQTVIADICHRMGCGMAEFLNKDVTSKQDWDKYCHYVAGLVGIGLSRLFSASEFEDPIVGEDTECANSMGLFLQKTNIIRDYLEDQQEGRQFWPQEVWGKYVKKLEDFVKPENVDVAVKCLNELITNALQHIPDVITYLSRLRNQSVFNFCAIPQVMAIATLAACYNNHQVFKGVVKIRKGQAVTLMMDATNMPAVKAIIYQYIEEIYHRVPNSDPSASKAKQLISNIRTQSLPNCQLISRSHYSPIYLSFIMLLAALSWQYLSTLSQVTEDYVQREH
Protocol: The intrinsic squalene synthetase inhibitory activity of representative compounds of this invention was measured by the standard in vitro protocol described below:
PREPARATION OF MICROSOMES
Male, Charles River CD rats (120 to 150 g) were fed a diet containing 0.1% lovastatin for 4 days. The livers from these rats were homogenized in 5 volumes (ml/g) of ice cold 50 mM HEPES (4-(2-hydroxyethyl)-1-piperazine-ethanesulfonic acid), 5 mM EDTA (ethylenediaminetetraacetic acid) pH 7.5 with a Potter-Elvehjem type tissue grinder. The homogenate was centrifuged twice at 20,000×g for 15 minutes at 4° C., discarding the pellet each time. The supernatant was then centrifuged at 100,000×g for 1 hour at 4° C. The resulting microsomal pellet was resuspended in a volume of the above homogenizing buffer equal to one-fifth the volume of the original homogenate. This microsomal preparation has a protein concentration of about 7 mg/ml. The microsomal suspensions were stored in aliquots at -70° C. Squalene synthetase activity in these aliquots is stable for at least several months.
Partial Purification of Prenyl Transferase
Prenyl transferase was purified to use in the enzymatic synthesis of radiolabelled farnesyl pyrophosphate. […]

Fus. oxysporum MF4014 = test: antifungal microtiter dilution assay, filamentous fungi (MIC); assay type: cell-based; settings: Fusarium oxysporum, 42 hours, 28° C., read-out: Minimum Inhibitory Concentration
Protocol: The compounds are particularly active towards filamentous fungi and yeasts including Candida albicans and Crypt. neoformans. The sensitivity of filamentous fungi and yeast was determined using inhibitor dilution assays in microtiter format. The compounds were dissolved in DMSO at 2 mg/ml and serially diluted in 0.1M phosphate buffer, pH 7.0 in the microtiter dish from 100 to 0.006 μg/ml. A standardized spore suspension for testing the filamentous fungi was prepared by inoculating Antibiotic Medium #3 containing 1.5% agar with spores such that 1.5×10^3 colony forming units were added per well. The microtiter wells were filled with 50 μl of buffer containing compound and 50 μl of inoculated medium. The sensitivity of yeasts was determined by inoculating yeast nitrogen base containing 1% dextrose (YNB/G) with aliquots of an overnight yeast culture grown in Yeast Morphology (YM) media at 35° C. and diluting in YNB/G to yield a final concentration of 1.5-7.5×10^3 colony forming units/well. One hundred fifty μl of inoculated media was added per well. To test the sensitivity of yeast, compound was solubilized in 10 percent aqueous DMSO at 2.56 mg/ml. The compound was diluted serially in YNB/G from 128 to 0.06 μg/ml. The wells were filled with 150 μl of drug containing media. […]

`CC=CCCCCC=CCCCCC(=O)OC1C(O)C2(CCC(C)C(O)C(C)CC=Cc3ccccc3)OC(C(=O)O)C(O)(C(=O)O)C1(C(=O)O)O2` (stereo not drawn) [Compound A] gave an IC50 (Squalene Synthetase) of 5 nM and an MIC (Fus. oxysporum MF4014) greater than 100 µg/mL.

`CC=CCCCCC=CCCCCC(=O)OC1C(O)C2(CCC(C)C(O)C(C)CC=Cc3ccccc3)OC(C(=O)OC)C(O)(C(=O)OC)C1(C(=O)OC)O2` (stereo not drawn) [Compound B] showed an IC50 (Squalene Synthetase) of 5000 nM.
